Data from US20220135622A1, “ANTIBACTERIAL PEPTIDES AND METHODS OF USE” (priority 2019, published 2022).
≈ marks a conversion by molar mass, not a printed value. Read-outs that look alike come from different tables or passages of the source. Square brackets hold non-standard residues; d marks the D form. Peptide text beside a SMILES is read from it. Bip = N[C@@H](Cc1ccc(-c2ccccc2)cc1)C(=O)O; hhPhe = N[C@@H](CCCc1ccccc1)C(=O)O; Ahp(2) = CCCCC[C@H](N)C(=O)O; Dap = NC[C@H](N)C(=O)O

How the values were obtained:
[1] = system: S. aureus USA300; test: MIC assay, S. aureus USA300; type: cell-based, Staphylococcus aureus; details: Table 7
Method: (§1) Bacterial growth conditions. LB or Mueller Hinton II cation-adjusted broth (MHB II, BBL 212322) was prepared according to manufacturer's instructions and supplemented with arabinose at 0.02% for overnight growth or at indicated concentrations in the description of the figures. Bacterial cultures were grown at 37° C. When appropriate, media was supplemented with kanamycin (50 μg/mL), carbenicillin (50 μg/mL), chloramphenicol (12.5 or 25 μg/mL), hygromycin (200 μg/mL), and/or gentamicin (10 μg/mL).
(§2) Peptide sensitivity and MIC assays. Lyophilized peptides (Smartox Biotechnology, CPC Scientific. ABclonal) were solubilized to 10 mM in Tris buffer, pH 8, prior to making a 2-fold dilution series in MHBII cation adjusted broth with highest final assay concentration of 400-800 μM. Bacteria were grown to log phase and added to final OD600˜0.001. The final EDTA concentration was 0.5 mM for E. coli strains and 0.125 mM for USA300. The final volume of 10 μL/well in a 384 well black, clear bottom plate (Corning) was spun <1 min at <250×g and then incubated at 37° C. After 4 h, an equal volume (10 μL) of BacTiter-Glo™ (Promega) was added to each well and luminescence was read after 5 min on an EnVision plate reader (PerkinElmer). To measure the minimal inhibitory concentrations (MICs), bacteria from fresh overnight plates or log phase cultures were diluted with or without EDTA and peptides as described above to final OD600˜0.0002. Plates were incubated at 37° C. for 20 h before measuring OD600 with an EnVision plate reader.

[2] = system: E. coli imp4213; test: MIC assay, E. coli imp4213; type: cell-based, Escherichia coli; details: Table 7
Method: as §1, §2

[3] = system: E. coli BW25113; type: cell-based, Escherichia coli
Method: as §1, §2

Row | Compound | MIC S. aureus USA300 [1] | MIC E. coli imp4213 [2] | MIC E. coli BW25113 ([3]; Table 8) | MIC E. coli BW25113 ([3]; BW25113)
1 | Ac-YPMTARRFLEAHGL-NH2 [compound 39] | >800 µM | 200 µM |  | 
2 | Ac-YPMTARRWLEKHGL-NH2 [compound 34] | >800 µM | 25 µM |  | 
3 | Ac-YPMTARKFLEKHGL-NH2 [compound 32] | >800 µM | 100 µM |  | 
4 | Ac-YPLTARRFLEKHGL-NH2 [compound 22] | >800 µM | 400 µM |  | 
5 | Ac-RPMTARRFLEKHGL-NH2 [compound 19] | >800 µM | 25 µM |  | 
6 | Ac-YPMTARAFLEKHGL-NH2 [compound 31] | >800 µM | 800 µM |  | 
7 | Ac-YPMTARRFWEKHGL-NH2 [compound 35] | >800 µM | 400 µM |  | 
8 | CCCCC[C@H](NC(=O)[C@H](CCCCN)NC(=O)[C@H](C)NC(=O)[C@H](CC(C)C)NC(=O)[C@H](Cc1c[nH]c2ccccc12)NC(=O)[C@H](CCCNC(=N)N)NC(=O)[C@H](CCCNC(=N)N)NC(=O)[C@H](C)NC(=O)[C@@H](NC(=O)[C@H](CCSC)NC(=O)[C@@H]1CCCN1C(=O)[C@H](CCCNC(=N)N)NC(C)=O)[C@@H](C)O)C(=O)NCC(=O)N[C@@H](CC(C)C)C(N)=O [compound 224] (Ac-RPMTARRWLAK[Ahp(2)]GL-NH2) |  |  | 100.0 µM (≈ 172 µg/mL) | 
9 | CSCC[C@H](NC(=O)[C@H](CN)NC(=O)[C@H](CCCc1ccccc1)NC(=O)[C@@H]1CCCN1C(=O)[C@H](CCCNC(=N)N)NC(C)=O)C(=O)N[C@@H](CCCNC(=N)N)C(=O)N[C@@H](CCCNC(=N)N)C(=O)N[C@@H](Cc1ccc(-c2ccccc2)cc1)C(=O)N[C@@H](CC(C)C)C(=O)N[C@@H](C)C(=O)N[C@@H](CCCCN)C(=O)N[C@@H](CCCNC(=N)N)C(=O)NCC(=O)N[C@@H](CC(C)C)C(N)=O [compound 226] (Ac-RP[hhPhe][Dap]MRR[Bip]LAKRGL-NH2) |  |  |  | 25.0 µM (≈ 47 µg/mL)
10 | Ac-YPMTARRFLEKHGGL-NH2 [compound 101] |  |  | 50.0 µM | 
11 | CSCC[C@H](NC(=O)[C@H](CN)NC(=O)[C@H](CCSC)NC(=O)[C@@H]1CCCN1C(=O)[C@H](CCCNC(=N)N)NC(C)=O)C(=O)N[C@@H](CCCNC(=N)N)C(=O)N[C@@H](CCCNC(=N)N)C(=O)N[C@@H](Cc1ccc(-c2ccccc2)cc1)C(=O)N[C@@H](CC(C)C)C(=O)N[C@@H](CCC(=O)O)C(=O)N[C@@H](CCCCN)C(=O)N[C@@H](CCCNC(=N)N)C(=O)NCC(=O)N[C@@H](CC(C)C)C(N)=O [compound 218] (Ac-RPM[Dap]MRR[Bip]LEKRGL-NH2) |  |  | 200.0 µM (≈ 379 µg/mL) | 
12 | Ac-YPMKFRRFLEKWGLLR-NH2 [compound 107] |  |  | 12.5 µM | 
13 | CSCC[C@H](NC(=O)[C@H](CN)NC(=O)[C@H](CCSC)NC(=O)[C@@H]1CCCN1C(=O)[C@H](CCCNC(=N)N)NC(C)=O)C(=O)N[C@@H](CCCNC(=N)N)C(=O)N[C@@H](CCCNC(=N)N)C(=O)N[C@@H](Cc1ccc(-c2ccccc2)cc1)C(=O)N[C@@H](CC(C)C)C(=O)N[C@@H](C)C(=O)N[C@@H](CCCCN)C(=O)N[C@@H](CCCNC(=N)N)C(=O)NCC(=O)N[C@@H](CC(C)C)C(N)=O [compound 219] (Ac-RPM[Dap]MRR[Bip]LAKRGL-NH2) |  |  |  | 25.0 µM (≈ 45.9 µg/mL)
14 | CSCC[C@H](NC(=O)[C@@H]1CCCN1C(=O)[C@H](Cc1ccc(O)cc1)NC(C)=O)C(=O)N[C@@H](CCCNC(=N)N)C(=O)N[C@@H](Cc1ccccc1)C(=O)N[C@@H](CN)C(=O)N[C@@H](CCCNC(=N)N)C(=O)N[C@@H](Cc1ccccc1)C(=O)N[C@@H](CC(C)C)C(=O)N[C@@H](CCC(=O)O)C(=O)N[C@@H](CCCCN)C(=O)N[C@@H](Cc1c[nH]c2ccccc12)C(=O)NCC(=O)N[C@@H](CC(C)C)C(=O)N[C@@H](CC(C)C)C(=O)N[C@@H](CCCNC(=N)N)C(N)=O [compound 105] (Ac-YPMRF[Dap]RFLEKWGLLR-NH2) |  |  |  | 50 µM (≈ 107 µg/mL)
